ChEMBL document CHEMBL4828768, “Talaromynoids A-I, Highly Oxygenated Meroterpenoids from the Marine-Derived Fungus Talaromyces purpureogenus SCSIO 41517 and Their Lipid Accumulation Inhibitory Activities” (J Nat Prod, 2021)

Target: T1, Tyrosine-protein phosphatase non-receptor type 1 (Homo sapiens) (UniProt P18031)
T1 sequence (whole entry): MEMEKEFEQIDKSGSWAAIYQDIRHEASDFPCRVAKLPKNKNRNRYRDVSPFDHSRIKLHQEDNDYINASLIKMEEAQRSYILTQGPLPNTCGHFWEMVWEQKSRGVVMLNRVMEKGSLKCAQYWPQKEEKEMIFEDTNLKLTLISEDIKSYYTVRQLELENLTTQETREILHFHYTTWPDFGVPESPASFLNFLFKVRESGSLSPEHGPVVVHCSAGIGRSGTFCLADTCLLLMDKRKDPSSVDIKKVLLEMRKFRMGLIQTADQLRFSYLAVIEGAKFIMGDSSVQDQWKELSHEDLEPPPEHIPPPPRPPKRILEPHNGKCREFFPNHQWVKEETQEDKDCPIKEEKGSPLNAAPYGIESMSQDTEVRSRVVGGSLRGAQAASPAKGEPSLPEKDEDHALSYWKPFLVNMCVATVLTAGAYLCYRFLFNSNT
Test: Inhibition of human recombinant PTP1B expressed in Escherichia coli assessed as inhibition of phosphatase activity by measuring p-nitrophenyl phosphate at 6.7 microg/ml measured after 60 mins
Settings: dose 6.7 µg/ml

Row | SMILES | inhibition [%]
1 | CC1=C2CC(=O)OC(C)(C)C2=CC[C@@]2(C)[C@H]1C[C@@](C)(C(=O)O)[C@]13COC(=O)[C@@]12C(=O)[C@H](C)O3 | < 60
2 | COC(=O)[C@]12C(=O)[C@H](C)O[C@@H]3OC(=O)[C@](C)(C[C@H]4C(C)=C5CC(=O)OC(C)(C)C5=CC[C@@]41C)[C@@H]32 [BERKELEYACETAL A] | < 60
3 | COC(=O)[C@]12[C@@H]3[C@H]4OC(=O)[C@]3(C)C[C@H]3C(C)=C5CC(=O)OC(C)(C)[C@@]56O[C@H]6[C@H](O[C@]1(O)[C@H](C)O4)[C@@]32C | < 60

Target: T2, Receptor-type tyrosine-protein phosphatase C (Homo sapiens) (UniProt P08575)
T2 sequence (whole entry): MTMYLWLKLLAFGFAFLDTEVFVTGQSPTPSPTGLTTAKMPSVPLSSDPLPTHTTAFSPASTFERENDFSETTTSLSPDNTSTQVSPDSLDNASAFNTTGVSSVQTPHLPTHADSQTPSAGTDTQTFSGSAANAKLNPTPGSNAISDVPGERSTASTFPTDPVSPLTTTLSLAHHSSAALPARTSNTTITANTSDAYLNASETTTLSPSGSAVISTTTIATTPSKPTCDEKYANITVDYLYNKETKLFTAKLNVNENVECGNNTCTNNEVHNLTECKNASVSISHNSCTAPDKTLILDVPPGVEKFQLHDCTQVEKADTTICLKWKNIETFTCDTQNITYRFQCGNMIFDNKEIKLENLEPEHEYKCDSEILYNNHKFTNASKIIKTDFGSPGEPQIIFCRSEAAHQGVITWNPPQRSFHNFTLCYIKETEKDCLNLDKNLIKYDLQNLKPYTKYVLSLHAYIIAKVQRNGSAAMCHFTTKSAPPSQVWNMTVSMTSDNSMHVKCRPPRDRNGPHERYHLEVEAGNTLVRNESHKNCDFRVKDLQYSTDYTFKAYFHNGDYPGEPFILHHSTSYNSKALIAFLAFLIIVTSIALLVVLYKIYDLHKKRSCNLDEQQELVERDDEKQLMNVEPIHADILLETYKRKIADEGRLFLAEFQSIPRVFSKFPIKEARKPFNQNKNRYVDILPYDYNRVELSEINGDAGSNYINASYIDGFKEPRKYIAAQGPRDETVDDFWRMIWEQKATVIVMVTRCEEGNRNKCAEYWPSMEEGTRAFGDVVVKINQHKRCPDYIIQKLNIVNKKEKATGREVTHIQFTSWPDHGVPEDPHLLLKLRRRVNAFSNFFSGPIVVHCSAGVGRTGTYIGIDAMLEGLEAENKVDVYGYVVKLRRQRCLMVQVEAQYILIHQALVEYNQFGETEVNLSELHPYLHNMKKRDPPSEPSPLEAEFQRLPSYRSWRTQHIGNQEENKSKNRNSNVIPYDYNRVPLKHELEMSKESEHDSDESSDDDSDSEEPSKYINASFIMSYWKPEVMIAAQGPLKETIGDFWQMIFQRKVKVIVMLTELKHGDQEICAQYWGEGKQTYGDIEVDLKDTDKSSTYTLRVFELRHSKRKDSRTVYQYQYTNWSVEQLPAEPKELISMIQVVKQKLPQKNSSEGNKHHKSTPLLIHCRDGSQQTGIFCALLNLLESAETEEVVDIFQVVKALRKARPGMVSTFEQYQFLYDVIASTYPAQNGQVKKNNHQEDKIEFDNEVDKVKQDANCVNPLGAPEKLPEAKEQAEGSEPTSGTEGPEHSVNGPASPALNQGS
Test: Inhibition of human recombinant CD45 expressed in Escherichia coli assessed as inhibition of phosphatase activity by measuring p-nitrophenyl phosphate at 6.7 microg/ml measured after 60 mins
Settings: dose 6.7 µg/ml

Row | SMILES | inhibition [%]
4 | CC1=C2CC(=O)OC(C)(C)C2=CC[C@@]2(C)[C@H]1C[C@@](C)(C(=O)O)[C@]13COC(=O)[C@@]12C(=O)[C@H](C)O3 | < 60
5 | COC(=O)[C@]12C(=O)[C@H](C)O[C@@H]3OC(=O)[C@](C)(C[C@H]4C(C)=C5CC(=O)OC(C)(C)C5=CC[C@@]41C)[C@@H]32 [BERKELEYACETAL A] | < 60
6 | COC(=O)[C@]12[C@@H]3[C@H]4OC(=O)[C@]3(C)C[C@H]3C(C)=C5CC(=O)OC(C)(C)[C@@]56O[C@H]6[C@H](O[C@]1(O)[C@H](C)O4)[C@@]32C | < 60

Target: Tyrosine-protein phosphatase non-receptor type 6 (Homo sapiens) (UniProt P29350)
Test: Inhibition of human recombinant SHP1 expressed in Escherichia coli assessed as inhibition of phosphatase activity by measuring p-nitrophenyl phosphate at 6.7 microg/ml measured after 60 mins
Settings: dose 6.7 µg/ml

Sequence of Tyrosine-protein phosphatase non-receptor type 6 (Homo sapiens) (P29350 whole entry): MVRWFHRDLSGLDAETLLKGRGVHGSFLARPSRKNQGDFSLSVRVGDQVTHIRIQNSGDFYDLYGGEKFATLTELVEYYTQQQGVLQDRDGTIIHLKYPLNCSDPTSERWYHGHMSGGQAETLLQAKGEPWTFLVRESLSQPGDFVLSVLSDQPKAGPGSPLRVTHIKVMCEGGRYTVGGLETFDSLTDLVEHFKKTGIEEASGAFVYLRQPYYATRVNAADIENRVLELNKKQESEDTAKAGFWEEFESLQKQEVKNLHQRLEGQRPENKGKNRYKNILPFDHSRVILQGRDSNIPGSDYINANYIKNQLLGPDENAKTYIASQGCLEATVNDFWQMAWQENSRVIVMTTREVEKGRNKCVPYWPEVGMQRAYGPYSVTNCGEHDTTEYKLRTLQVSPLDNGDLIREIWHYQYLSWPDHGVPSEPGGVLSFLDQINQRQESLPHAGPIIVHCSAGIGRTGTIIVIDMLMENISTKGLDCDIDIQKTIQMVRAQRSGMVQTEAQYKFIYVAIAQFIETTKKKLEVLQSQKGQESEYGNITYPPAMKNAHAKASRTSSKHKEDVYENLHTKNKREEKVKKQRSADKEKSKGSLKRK

Row | SMILES | inhibition [%]
7 | CC1=C2CC(=O)OC(C)(C)C2=CC[C@@]2(C)[C@H]1C[C@@](C)(C(=O)O)[C@]13COC(=O)[C@@]12C(=O)[C@H](C)O3 | < 60
8 | COC(=O)[C@]12C(=O)[C@H](C)O[C@@H]3OC(=O)[C@](C)(C[C@H]4C(C)=C5CC(=O)OC(C)(C)C5=CC[C@@]41C)[C@@H]32 [BERKELEYACETAL A] | < 60
9 | COC(=O)[C@]12[C@@H]3[C@H]4OC(=O)[C@]3(C)C[C@H]3C(C)=C5CC(=O)OC(C)(C)[C@@]56O[C@H]6[C@H](O[C@]1(O)[C@H](C)O4)[C@@]32C | < 60

Target: T3, Tyrosine-protein phosphatase non-receptor type 2 (Homo sapiens) (UniProt P17706)
T3 sequence (whole entry): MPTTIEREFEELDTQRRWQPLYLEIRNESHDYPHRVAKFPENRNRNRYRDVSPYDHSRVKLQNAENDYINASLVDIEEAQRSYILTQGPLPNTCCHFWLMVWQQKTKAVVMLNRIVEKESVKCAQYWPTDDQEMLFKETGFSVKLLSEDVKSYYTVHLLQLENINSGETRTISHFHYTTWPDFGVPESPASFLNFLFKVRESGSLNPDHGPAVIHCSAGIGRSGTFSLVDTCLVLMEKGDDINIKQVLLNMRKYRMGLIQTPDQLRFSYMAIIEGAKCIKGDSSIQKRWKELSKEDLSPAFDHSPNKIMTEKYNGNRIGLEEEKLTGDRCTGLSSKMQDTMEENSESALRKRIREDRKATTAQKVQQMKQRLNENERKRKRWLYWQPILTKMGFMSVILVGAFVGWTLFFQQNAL
Test: Inhibition of human recombinant TCPTP expressed in Escherichia coli assessed as inhibition of phosphatase activity by measuring p-nitrophenyl phosphate at 6.7 microg/ml measured after 60 mins
Settings: dose 6.7 µg/ml

Row | SMILES | inhibition [%]
10 | CC1=C2CC(=O)OC(C)(C)C2=CC[C@@]2(C)[C@H]1C[C@@](C)(C(=O)O)[C@]13COC(=O)[C@@]12C(=O)[C@H](C)O3 | < 60
11 | COC(=O)[C@]12C(=O)[C@H](C)O[C@@H]3OC(=O)[C@](C)(C[C@H]4C(C)=C5CC(=O)OC(C)(C)C5=CC[C@@]41C)[C@@H]32 [BERKELEYACETAL A] | < 60
12 | COC(=O)[C@]12[C@@H]3[C@H]4OC(=O)[C@]3(C)C[C@H]3C(C)=C5CC(=O)OC(C)(C)[C@@]56O[C@H]6[C@H](O[C@]1(O)[C@H](C)O4)[C@@]32C | < 60

Target: T4, M-phase inducer phosphatase 2 (Homo sapiens) (UniProt P30305)
T4 sequence (whole entry): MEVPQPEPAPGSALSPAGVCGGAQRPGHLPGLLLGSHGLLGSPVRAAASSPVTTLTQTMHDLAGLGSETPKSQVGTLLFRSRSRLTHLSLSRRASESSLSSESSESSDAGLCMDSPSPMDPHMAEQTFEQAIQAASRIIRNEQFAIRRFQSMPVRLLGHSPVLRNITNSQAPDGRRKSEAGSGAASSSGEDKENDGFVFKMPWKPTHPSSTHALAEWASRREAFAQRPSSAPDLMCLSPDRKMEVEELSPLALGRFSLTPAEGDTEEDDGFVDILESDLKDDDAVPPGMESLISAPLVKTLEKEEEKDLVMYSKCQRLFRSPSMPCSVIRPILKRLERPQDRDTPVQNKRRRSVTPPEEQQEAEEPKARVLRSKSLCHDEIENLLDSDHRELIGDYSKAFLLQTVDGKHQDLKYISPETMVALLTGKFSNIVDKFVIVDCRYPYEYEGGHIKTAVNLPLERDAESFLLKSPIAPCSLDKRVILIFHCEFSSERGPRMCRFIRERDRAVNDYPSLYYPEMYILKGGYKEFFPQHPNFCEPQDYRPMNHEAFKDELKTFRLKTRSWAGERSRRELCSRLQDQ
Test: Inhibition of human recombinant CDC25B expressed in Escherichia coli assessed as inhibition of phosphatase activity by measuring p-nitrophenyl phosphate at 6.7 microg/ml measured after 60 mins
Settings: dose 6.7 µg/ml

Row | SMILES | inhibition [%]
13 | CC1=C2CC(=O)OC(C)(C)C2=CC[C@@]2(C)[C@H]1C[C@@](C)(C(=O)O)[C@]13COC(=O)[C@@]12C(=O)[C@H](C)O3 | < 60
14 | COC(=O)[C@]12C(=O)[C@H](C)O[C@@H]3OC(=O)[C@](C)(C[C@H]4C(C)=C5CC(=O)OC(C)(C)C5=CC[C@@]41C)[C@@H]32 [BERKELEYACETAL A] | < 60
15 | COC(=O)[C@]12[C@@H]3[C@H]4OC(=O)[C@]3(C)C[C@H]3C(C)=C5CC(=O)OC(C)(C)[C@@]56O[C@H]6[C@H](O[C@]1(O)[C@H](C)O4)[C@@]32C | < 60
